From PMC11865982, “Structure–Activity Relationships and Biological Insights into PSMA-617 and Its Derivatives with Modified Lipophilic Linker Regions” (ACS Omega, 2025)

Experiments:
[1] = linker amino acid building block; source not stated; cited from earlier work
recombinant human PSMA = molecular target: T1, recombinant human PSMA (Homo sapiens, UniProt Q04609); assay: HPLC-based PSMA enzyme inhibition assay with fluorescein-γ-Glu-Glu substrate; format: biochemical; conditions: 20 pM recombinant human PSMA, 100 nM substrate, 37 °C; average ± SD (n = 3)
T1 construct: extracellular part of human PSMA (amino acids 44–750); made in house; host or cells: Drosophila Schneider's S2 cells (secreted into conditioned medium)
T1 sequence (Q04609 44-750): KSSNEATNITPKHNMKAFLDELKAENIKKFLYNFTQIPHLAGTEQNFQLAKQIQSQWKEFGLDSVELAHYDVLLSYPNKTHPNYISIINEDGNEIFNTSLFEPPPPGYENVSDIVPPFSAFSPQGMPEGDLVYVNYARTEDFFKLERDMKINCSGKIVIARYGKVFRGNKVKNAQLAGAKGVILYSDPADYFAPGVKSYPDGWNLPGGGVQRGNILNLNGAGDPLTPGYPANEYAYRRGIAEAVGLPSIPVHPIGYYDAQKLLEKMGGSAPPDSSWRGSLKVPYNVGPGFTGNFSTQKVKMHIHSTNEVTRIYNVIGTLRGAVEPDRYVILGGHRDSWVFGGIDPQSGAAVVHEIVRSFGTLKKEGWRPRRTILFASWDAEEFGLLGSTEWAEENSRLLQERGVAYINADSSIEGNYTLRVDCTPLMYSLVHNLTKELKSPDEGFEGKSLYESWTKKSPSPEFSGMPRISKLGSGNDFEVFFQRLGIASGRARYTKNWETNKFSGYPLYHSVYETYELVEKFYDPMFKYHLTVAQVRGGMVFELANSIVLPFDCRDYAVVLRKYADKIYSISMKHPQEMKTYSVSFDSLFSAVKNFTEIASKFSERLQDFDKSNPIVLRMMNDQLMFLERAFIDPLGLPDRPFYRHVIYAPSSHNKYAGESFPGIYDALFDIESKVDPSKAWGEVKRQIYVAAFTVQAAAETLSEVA
Experimental: The potency of the studied inhibitors against recombinant human PSMA was determined in vitro using an HPLC-based assay with fluorescein−γ-Glu–Glu as the substrate.[11]
Expression and purification of the extracellular part of human PSMA (amino acids 44–750) were performed essentially as described previously.[27] Briefly, the N-terminally tagged PSMA fusion was overexpressed in Schneider’s S2 cells and the conditioned medium concentrated and dialyzed by tangential flow filtration (Millipore, Mosheim, France).
The inhibitory potency was determined using a fluorescence-based assay described previously.[11] Briefly, 20 pM recombinant human PSMA was preincubated with a 3-fold dilution series of inhibitors in 50 mM Tris.HCl, 150 mM NaCl, and 0.001% C12 E8 for 10 min at 37 °C. The reaction was initiated by the addition of 100 nM substrate in a total volume 50 μL. Following 15 min incubation at 37 °C, the reaction was stopped by the addition of 50 μL of 0.1% TFA in 5% ACN. Reaction mixtures were analyzed by RP-HPLC (Shimadzu, HPLC Prominence system) equipped with a Kinetex 2.6 μm XB-C18 100 Å column and a fluorescence detector (λEX/λEM = 492/516). HPLC separation was performed using a linear solvent gradient over 11 min from 20 to 50% of eluent B (0.1% (v/v) TFA in ACN) at a flow rate of 0.6 mL/min. The mobile phase A was 0.1% (v/v) TFA in water. The noninhibited reaction was assigned 100% and the reaction without enzyme present was defined as 0%. Data were fitted using a nonlinear regression algorithm (GraphPad Prism Software, version 8) to calculate IC50 values from the inhibition curves. Three independent assays were performed for each compound.

[2] = molecular target: T2, PSMA-overexpressing PC-3 PIP cell line (Homo sapiens, UniProt Q04609); assay: Competitive cell-binding affinity assay against [177Lu]Lu-PSMA-617, PC3-PIP; conditions: competition with 0.75 nM [177Lu]Lu-PSMA-617, 45 min RT; average ± SD (n = 3)
T2 construct: host or cells: PC3-PIP (subline of the human PC3 prostate cancer line)
T2 sequence (Q04609 whole entry): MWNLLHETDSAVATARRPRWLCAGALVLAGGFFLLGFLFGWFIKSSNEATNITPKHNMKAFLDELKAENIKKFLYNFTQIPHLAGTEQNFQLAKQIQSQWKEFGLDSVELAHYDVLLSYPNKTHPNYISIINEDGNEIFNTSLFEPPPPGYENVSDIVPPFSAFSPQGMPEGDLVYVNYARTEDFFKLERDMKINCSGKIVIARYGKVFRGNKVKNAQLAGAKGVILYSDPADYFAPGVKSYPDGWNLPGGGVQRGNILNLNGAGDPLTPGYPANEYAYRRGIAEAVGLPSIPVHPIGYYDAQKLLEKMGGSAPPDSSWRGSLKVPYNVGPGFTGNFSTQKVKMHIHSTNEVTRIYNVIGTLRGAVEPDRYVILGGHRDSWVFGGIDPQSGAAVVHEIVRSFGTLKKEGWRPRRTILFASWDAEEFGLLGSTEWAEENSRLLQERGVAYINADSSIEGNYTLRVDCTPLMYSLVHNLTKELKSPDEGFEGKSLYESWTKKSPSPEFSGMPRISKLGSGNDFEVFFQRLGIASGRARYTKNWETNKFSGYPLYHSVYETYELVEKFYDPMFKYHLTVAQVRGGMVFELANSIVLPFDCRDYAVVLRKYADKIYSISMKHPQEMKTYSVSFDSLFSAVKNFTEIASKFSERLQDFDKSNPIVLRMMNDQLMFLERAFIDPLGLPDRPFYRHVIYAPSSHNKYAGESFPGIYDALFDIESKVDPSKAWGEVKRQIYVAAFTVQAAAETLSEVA
Experimental: (§1) To validate the IC50 values determined by the in vitro enzymatic assay, the PSMA-expressing cell line LNCaP, its daughter cell line C4-2, and the PSMA-overexpressing cell line PC-3 PIP were utilized to compare the cell-binding affinities of P17 and P18 to PSMA-617. The IC50 values of P17 and P18 were assessed by competitive binding against [^177Lu]Lu-PSMA-617. […] For the transfected cell line PC-3 PIP, the IC50 values for all three compounds were determined to be approximately 10-fold higher.
(§2) Cell culture media and supplements were purchased from PAN Biotech if not stated otherwise. In vitro assays were performed using the sublines of the androgen-independent PC3 human PCa cell line, PSMA-positive (PSMA+) PC3-PIP and PSMA-negative (PSMA−) PC3-flu cells, purchased from Johns Hopkins University (Baltimore, […], USA). Both cell lines were housed in a humidified atmosphere of 5% CO2 at 37 °C and cultured in RPMI-1640 medium supplemented with 10% fetal calf serum (FCS), 1% L-glutamine (L-Gln), and puromycin (2 μg/mL). In addition, cell-binding affinity assays were also performed on PSMA + LNCaP (ATCC CRL-1740) and C4-2 (ATCC CRL-3314) cell lines. LNCaP was derived from a human lymph node metastatic lesion of PCa while C4-2 was isolated from an LNCaP-based tumor xenograft of an androgen-depleted mouse. Both cell lines were cultured as described above but in the absence of puromycin. Routine cell culture was performed twice a week at RT using phosphate-buffered saline (PBS, pH 7.4) for washing and 0.05% trypsin for cell detachment.
(§3) The binding affinities of PSMA-617, P17, and P18 were determined using a competitive assay with [^177Lu]Lu-PSMA-617. All three compounds were incubated at 12 different concentrations (0, 0.5, 1, 2.5, 5, 10, 25, 50, 100, 500, 1,000, and 5000 nM) with 0.75 nM [^177Lu]Lu-PSMA-617 on either PSMA + cell lines PC3-PIP, LNCaP, or C4-2 or the PSMA– cell line PC3-flu plated at a concentration of 10^6 cells/well. After 45 min incubation at RT, the radioligand was removed and cells washed twice with 100 μL and once with 200 μL ice-cold PBS. […]

[3] = molecular target: T3, PSMA-positive LNCaP cell line (Homo sapiens, UniProt Q04609); assay: Competitive cell-binding affinity assay against [177Lu]Lu-PSMA-617, LNCaP; conditions: competition with 0.75 nM [177Lu]Lu-PSMA-617, 45 min RT; average ± SD (n = 3)
T3 construct: native LNCaP and LNCaP-derived C4-2 cell lines; host or cells: LNCaP
T3 sequence (Q04609 whole entry): as above
Experimental: as §1, §2, §3

[4] = molecular target: T4, PSMA-positive C4-2 cell line (Homo sapiens, UniProt Q04609); assay: Competitive cell-binding affinity assay against [177Lu]Lu-PSMA-617, C4-2; conditions: competition with 0.75 nM [177Lu]Lu-PSMA-617, 45 min RT; average ± SD (n = 3)
T4 construct: native LNCaP and LNCaP-derived C4-2 cell lines; host or cells: C4-2
T4 sequence (Q04609 whole entry): as above
Experimental: as §1, §2, §3

[5] = Stability in DMSO solution by 1H NMR; format: physicochemical; conditions: several days
Experimental: Characterization of the compounds was conducted extensively by one-dimensional (1D) ^1H, ^13C, and ^15N NMR (Figures S10–S15) and two-dimensional (2D) spectra, viz. COSY, HSQC, and HMBC (Figures S16–S21). Previous assignments of analogous compounds[5] were also used to provide unequivocal assignment of the ^1H, ^13C, and ^15N signals except for the DOTA macrocyclic ring assignments which could not be effected with certitude due to dynamic effects causing severe line broadening and thereby precluding correlations in the 2D spectra pertinent to the DOTA ring. The dynamic effects arising from the slow motional averaging of the DOTA ring on the NMR time scale leading to severe broadening of the signals of the DOTA ring were alleviated for the ^13C signals by the acquisition of spectra at lower field. Indeed, not all of the signals of the DOTA ring could be observed in the case of ^15N, unequivocally assigned in the case of ^13C, or uniquely discerned in the case of ^1H. However, all other signals though were able to be fully assigned and the spectra were otherwise fully consistent with the proposed structures and for both P17 and P18 the assigned structures were confirmed in terms of proton count, carbon count, and carbon multiplicities. […]

[6] = n-Octanol/PBS distribution coefficient; format: physicochemical; conditions: n-octanol/PBS pH 7.4
PC3-PIP cells = assay: Cellular internalization assay; format: cell-based, human; conditions: 30 nM radioligand, 45 min 37 °C, average ± SD (n = 3)
Experimental: To further characterize P17 and P18, internalization assays were conducted to determine whether the structural modifications of the linker have an impact on the uptake of the inhibitor–enzyme complex into the cell, which is critical for efficient retention in vivo.
as §2
Cells (10^5 cells/well) were seeded in poly-L-lysine (PLL)-coated plates 24 h before the experiment. […] Another set of cells was treated analogically while the PSMA-inhibitor 2-(phosphonomethyl)pentane-1,5-dioic acid (2-PMPA; 100 mM, […]) was added in order to subtract the nonspecific binding. The respective radioligand was removed and cells were washed three times with 1 mL ice-cold PBS and the surface-bound radioactivity detached by incubating the cells twice with 500 μL glycine buffer (50 mM, pH 2.8) for 5 min. After washing the cells once with 1 mL ice-cold PBS, the internalized fraction was determined by subsequent cells lysis with 500 μL NaOH (0.3 M, pH 14). […] Three independent assays were performed.

SMILES	IC50 (recombinant human PSMA) [nM]	IC50 [2] [nM]	IC50 [3] [nM]	IC50 [4] [nM]	log D [6]	internalized (PC3-PIP cells) [% AA]	total binding (PC3-PIP cells) [% AA]	further results
N[C@@H](Cc1ccc2ccccc2c1)C(=O)O [2-naphthyl-L-Ala]								log Kow [1]: > 3
N[C@@H](CC=Cc1ccccc1)C(=O)O [3-styryl-L-Ala]								log Kow [1]: < 3
O=C(O)CC[C@H](NC(=O)N[C@@H](CCCCNC(=O)[C@H](C/C=C/c1ccccc1)NC(=O)[C@H]1CC[C@H](CNC(=O)CN2CCN(CC(=O)O)CCN(CC(=O)O)CCN(CC(=O)O)CC2)CC1)C(=O)O)C(=O)O [P17]	0.3 ± 0.04	150 ± 30	12.9 ± 0.4	15.5 ± 2.5				stability in DMSO solution [5]: no sign of decomposition after several days
O=C(O)CC[C@H](NC(=O)N[C@@H](CCCCNC(=O)[C@H](C/C=C/c1ccccc1)NC(=O)c1ccc(CNC(=O)CN2CCN(CC(=O)O)CCN(CC(=O)O)CCN(CC(=O)O)CC2)cc1)C(=O)O)C(=O)O [P18]	0.45 ± 0.09	111 ± 9	11.2 ± 4.8	9.5 ± 3				stability in DMSO solution [5]: no sign of decomposition after several days
O=C(O)CC[C@H](NC(=O)N[C@@H](CCCCNC(=O)[C@H](Cc1ccc2ccccc2c1)NC(=O)[C@H]1CC[C@H](CNC(=O)CN2CCN(CC(=O)O)CCN(CC(=O)O)CCN(CC(=O)O)CC2)CC1)C(=O)O)C(=O)O [PSMA-617]	0.05 ± 0.03	71 ± 8	6.9 ± 2.2	4.9 ± 0.9				
O=C([O-])CN1CCN(CC(=O)[O-])CCN(CC(=O)NC[C@H]2CC[C@H](C(=O)N[C@@H](C/C=C/c3ccccc3)C(=O)NCCCC[C@H](NC(=O)N[C@@H](CCC(=O)O)C(=O)O)C(=O)O)CC2)CCN(CC(=O)[O-])CC1.[177Lu+3] [[^177Lu]Lu-P17]					−3.36 ± 0.05	8.5 ± 2.4	20.1 ± 9.8	
O=C([O-])CN1CCN(CC(=O)[O-])CCN(CC(=O)NCc2ccc(C(=O)N[C@@H](C/C=C/c3ccccc3)C(=O)NCCCC[C@H](NC(=O)N[C@@H](CCC(=O)O)C(=O)O)C(=O)O)cc2)CCN(CC(=O)[O-])CC1.[177Lu+3] [[^177Lu]Lu-P18]					−3.35 ± 0.04	8.7 ± 2.9	33.7 ± 12.8	
O=C([O-])CN1CCN(CC(=O)[O-])CCN(CC(=O)NC[C@H]2CC[C@H](C(=O)N[C@@H](Cc3ccc4ccccc4c3)C(=O)NCCCC[C@H](NC(=O)N[C@@H](CCC(=O)O)C(=O)O)C(=O)O)CC2)CCN(CC(=O)[O-])CC1.[177Lu+3] [[^177Lu]Lu-PSMA-617, reference compound]					−3.27 ± 0.05	8.2 ± 2.4	26.8 ± 14.2	
